Laboratory results published in paper PMC12426922, “Fingerprinting the Intestinal Transport of Low-Molecular-Mass Advanced Glycation End-Products (AGEs) Using a Caco‑2 Transwell Model” (Journal of Agricultural and Food Chemistry, 2025).
Where “and” joins values, the source holds several entries; their conditions need not be identical. Identical values can stand only once. Like-named read-outs stand apart in the source and are kept apart here. Marks after values point to notes of the source that are not given here.

Key:
Caco-2 cell monolayer = assay: Accumulation of AGEs in the Caco-2 cell monolayer after transport experiment; format: in vitro ADME, Human; details: 2 h; for percentage of the amount added at the apical side at t = 0: accumulation / percentage of the amount added at the apical side at t = 0: accumulation (intracellular): mixture, each AGE 100 μmol/L
Protocol: After the transport experiment, the cell monolayer on the inset membrane was washed three times with HBSS and three times with PBS. […] The samples were subsequently centrifuged at 16 000g for 20 min at 4 °C, and the supernatant was collected for further analysis by LC-MS.
The analytical column was maintained at 40 °C throughout the quantification process. A multistep binary gradient system of water containing 0.1% (v/v) formic acid (solvent A) and acetonitrile containing 0.1% (v/v) formic acid (solvent B) was used. In the whole gradient program, the total proportion of solvents A and B is always equal to 100%. […] The initial flow rate was set to 0.30 mL/min. Subsequently, it was reduced to 0.25 mL/min at 0.3 min, which was kept until 10 min. Afterward, there was a gradual decrease, reaching 0.15 mL/min at 11 min, and this rate was maintained until 12 min. […] Between 1 and 11 min of gradient running, the line was set to MS, and for the other time periods, the line was set to waste. The retention time and mass spectrometry parameters of individual AGEs are listed in Table S1 and the chromatograms of the samples are shown in Figure S1.

[1] = test system: differentiated Caco-2 cells; assay: WST-1 cytotoxicity assay, viability of differentiated Caco-2 cells after 2 h exposure; format: cell-based, Human; details: for concentration that did not significantly affect cell viability: for the mixture: concentration of each AGE
Protocol: (§1) Human colon carcinoma cells (Caco-2 cells) were obtained from the American Type Culture Collection (ATCC, Rockville, MD, USA). Caco-2 cells were cultured in complete culture medium, composed of DMEM GlutaMAX with 10% FBS (v/v), 1% P/S (v/v), and 1% NEAA (v/v) at 37 °C in a 5% (v/v) CO2 incubator. In this study, Caco-2 cells within passages 10–15 were utilized.
The WST-1 assay was used to quantify the viability of differentiated Caco-2 cells upon exposure to the individual AGEs and their equimolar mixture. To this end, Caco-2 cells were seeded in 96-well plates at 3 × 10^4 cells/well (100 μL) and incubated at 37 °C under 5% (v/v) CO2 for 20 days. The complete culture medium was refreshed on each alternate day. After full differentiation, the culture medium was removed, and the cells were washed with HBSS (containing 1% (v/v) HEPES) twice on the testing day. The same volume (100 μL) of HBSS containing a series of concentrations of the different individual test compounds or of a mixture containing all 10 AGEs was added from a 20-times-concentrated stock solution in HBSS. The test concentrations were designed based on the estimated daily intake of total AGEs (0.55–0.66 mg/(kg·day)) and high-exposure scenarios (1.4–1.8 mg/(kg day)). […] After exposure for 2 h, the absorbance at 440 and 620 nm was measured in a plate spectrophotometer (Molecular Devices, San Jose, CA, USA, Spectra Max M2). After measurement, the cell viability was calculated as cell viability (%)=(Atested 440 nm−Atested 620 nm)/(Acontrol 440 nm−Acontrol 620 nm)×100

Caco-2 cell layer = assay: Transport of AGE mixture across Caco-2 cell layer (transwell, apical to basolateral); format: in vitro ADME, Human; details: for percentage of the amount added at the apical side at t = 0: apical side / percentage of the amount added at the apical side at t = 0: basolateral side / percentage of the amount added at the apical side at t = 0: apical side (nontransported) / percentage of the amount added at the apical side at t = 0: basolateral side (transported): mixture, each AGE 100 μmol/L, 2 h; for percentage of the amount added at the apical side at t = 0: apical side (nontransported) / percentage of the amount added at the apical side at t = 0: basolateral side (transported): standard treatment; for effect of 4 °C on transport compared to 37 °C: 4 °C versus 37 °C
Protocol: as §1
(§2) Caco-2 cells were cultured until reaching 50%–60% confluence (undifferentiated Caco-2 cells), followed by trypsinization. Then, cells were seeded at 3 × 10^4 cells per insert in 100 μL of complete culture medium into the transwell inserts of a 24-well transwell plate, and 600 μL of complete culture medium was added to the basolateral compartments. In both the apical and basolateral compartments, the medium was renewed every other day. After 2 weeks, the transepithelial electrical resistance (TEER) value was measured using a Millicell ERS-2 Electrical Resistance System (Burlington, MA, USA) every other day. Only wells with a TEER value of >400 Ω/cm^2 were used for transport experiments. Moreover, the TEER value was measured before and after the transport experiment to ascertain that the Caco-2 cell layer remained intact during the whole transport experiment.
(§3) Transport experiments were performed after 20 days of differentiation of the Caco-2 cells. The culture medium was replaced with HBSS (containing 1% (v/v) HEPES) 30 min prior to testing in both the apical and basolateral compartments. After the 30 min preincubation, 100 μL of HBSS containing a mixture of the 10 different AGEs including CML, CEL, GALA, argpyrimidine, MG-H1, GOLD, GOLA, MOLD, pentosidine, and pyrraline, each at 100 μmol/L, was added to the apical compartment after removing the preincubation medium, while the basolateral medium was replaced by 600 μL of HBSS. […] At 120 min, a 10 μL sample from the apical side was taken for calculating apical side retention (nontransported percentage).
(§4) The apparent permeability coefficient (Papp) value was calculated according to the methodology described by Yee.
(§5) AGEs were quantified by LC-MS using a Shimadzu Nexera XR LC-40D XR UPLC system (Kyoto, Japan) equipped with a UPLC Amide column (100 mm × 2.1 mm, 1.7 μm) without derivatization coupled with a Shimadzu LCMS-8045 triple quadrupole mass spectrometer (Kyoto, Japan). The analytical column was maintained at 40 °C throughout the quantification process. A multistep binary gradient system of water containing 0.1% (v/v) formic acid (solvent A) and acetonitrile containing 0.1% (v/v) formic acid (solvent B) was used. In the whole gradient program, the total proportion of solvents A and B is always equal to 100%. The gradient program was designed as follows: 75% solvent B to 12.5% solvent B from 0 to 10 min, followed by 12.5% solvent B from 10 to 11 min. […] The initial flow rate was set to 0.30 mL/min. Subsequently, it was reduced to 0.25 mL/min at 0.3 min, which was kept until 10 min. Afterward, there was a gradual decrease, reaching 0.15 mL/min at 11 min, and this rate was maintained until 12 min. […] Between 1 and 11 min of gradient running, the line was set to MS, and for the other time periods, the line was set to waste. The retention time and mass spectrometry parameters of individual AGEs are listed in Table S1 and the chromatograms of the samples are shown in Figure S1.

[2] = as above; format: in vitro ADME, Human; details: human; for recovery at 2 h, 100 μmol/L: read-out: percentage of the amount added at the apical side at t = 0: recovery; for Papp at 120 min, 100 μmol/L: data from 120 min
Protocol: as §1, §2, §3, §4, §5

PepT1 = assay: as above; format: in vitro ADME, Human; details: human, mixture, each AGE 100 μmol/L; for recovery at 2 h, 100 μmol/L: Caco-2, with Gly-Sar 10 mmol/L (apical compartment), Gly-Sar 10 mmol/L, read-out: percentage of the amount added at the apical side at t = 0: recovery; for Papp at 120 min, 100 μmol/L: Caco-2, with Gly-Sar 10 mmol/L (apical), 10 mmol/L Gly-Sar apical (PepT1 inhibition), data from 120 min
Protocol: as §1, §2, §3, §4, §5

[3] = Caco-2, 4 °C, mixture, each AGE 100 μmol/L
[4] = Caco-2, cytochalasin D pretreatment, mixture, each AGE 100 μmol/L
[5] = Caco-2, standard treatment (37 °C), equimolar mixture of 10 AGEs, each 100 μmol/L apical
[6] = Caco-2, standard treatment, mixture, each AGE 100 μmol/L
[7] = Caco-2, cytochalasin D 1 μg/mL, 30 min apical preincubation, mixture, each AGE 100 μmol/L

Row | SMILES | percentage of the amount added at the apical side at t = 0: accumulation (Caco-2 cell monolayer; 4 °C) | percentage of the amount added at the apical side at t = 0: accumulation (Caco-2 cell monolayer; Gly-Sar 10 mmol/L) | percentage of the amount added at the apical side at t = 0: accumulation (Caco-2 cell monolayer; cytochalasin D pretreatment) | percentage of the amount added at the apical side at t = 0: accumulation (intracellular) (Caco-2 cell monolayer; standard treatment) | concentration that did not significantly affect cell viability [1] | percentage of the amount added at the apical side at t = 0: apical side (Caco-2 cell layer; 4 °C) | percentage of the amount added at the apical side at t = 0: basolateral side (Caco-2 cell layer; 4 °C) | percentage of the amount added at the apical side at t = 0: basolateral side (Caco-2 cell layer; Gly-Sar 10 mmol/L) | percentage of the amount added at the apical side at t = 0: apical side (Caco-2 cell layer; cytochalasin D pretreatment) | percentage of the amount added at the apical side at t = 0: basolateral side (Caco-2 cell layer; cytochalasin D pretreatment) | percentage of the amount added at the apical side at t = 0: apical side (nontransported) (Caco-2 cell layer) | percentage of the amount added at the apical side at t = 0: basolateral side (transported) (Caco-2 cell layer) | recovery at 2 h, 100 μmol/L [2, 3] | Papp at 120 min, 100 μmol/L [2, 3] | recovery at 2 h, 100 μmol/L [2, 4] | Papp at 120 min, 100 μmol/L [2, 5] | recovery at 2 h, 100 μmol/L [2, 6] | Papp at 120 min, 100 μmol/L [2, 7] | recovery at 2 h, 100 μmol/L (PepT1) | Papp at 120 min, 100 μmol/L (PepT1) | further results
1 | CC(NCCCC[C@H](N)C(=O)O)C(=O)O (some centres unmarked) [CEL, N-ε-(carboxyethyl)-lysine] | 0.0 ± 0.0 ^b % | 1.3 ± 0.2 ^a % | 1.2 ± 0.2 ^a % | 1.1 ± 0.2 ^a % | ≤ 1500 µM | 88.8 ± 9.1 ^a % | 0.3 ± 0.1 ^a % | 0.4 ± 0.1 ^a % | 93.1 ± 4.7 ^a % | 1.2 ± 0.6 ^b % | 95.0 ± 7.00 ^a % | 0.4 ± 0.2 ^a % | 89.1 ± 9.1% | 0.105 ×10⁻⁶ cm/s | 95.5 ± 5.1% | 0.164 ×10⁻⁶ cm/s | 96.5 ± 7.2% | 0.507 ×10⁻⁶ cm/s | 89.5 ± 4.8% | 0.149 ×10⁻⁶ cm/s | intracellular accumulation relative to CML (Caco-2 cell monolayer; standard treatment): about half that observed of CML
2 | N[C@@H](CCCCNC(=O)CO)C(=O)O [GALA, glycolic acid–lysine–amide] | 0.0 ± 0.0 ^b % | 0.2 ± 0.1 ^a % | 0.2 ± 0.1 ^a % | 0.2 ± 0.1 ^a % | ≤ 1500 µM | 89.1 ± 4.5 ^a % | 0.2 ± 0.1 ^c % | 0.8 ± 0.2 ^b % | 87.4 ± 4.3 ^a % | 2.1 ± 0.8 ^a % | 85.0 ± 7.1 ^a % | 1.1% and 1.06% and 1.1 ± 0.3 ^b % | 89.3 ± 4.5% | 0.095 ×10⁻⁶ cm/s | 89.7 ± 4.6% | 0.448 ×10⁻⁶ cm/s | 86.2 ± 7.1% | 0.87 ×10⁻⁶ cm/s | 85.4 ± 3.6% | 0.321 ×10⁻⁶ cm/s | effect of 4 °C on transport compared to 37 °C (Caco-2 cell layer): significantly reduced; reduction of the Papp value in the presence of Gly-Sar (Caco-2 cell layer; Gly-Sar 10 mmol/L versus standard): 28%; percentage of the amount added at the apical side at t = 0: apical side (Caco-2 cell layer; Gly-Sar 10 mmol/L): 84.4 ± 3.6 ^a %
3 | N[C@@H](CCCCn1cc[n+](CCCC[C@H](N)C(=O)O)c1)C(=O)O [GOLD, glyoxal-derived lysine dimer] | 0.0 ± 0.0 ^c % | 0.1 ± 0.0 ^a % | 0.0 ± 0.0 ^ab % |  |  | 89.6 ± 13.2 ^b % | 0.1 ± 0.1 ^b % | 0.2 ± 0.1 ^b % | 101.2 ± 9.4 ^a % | 0.8 ± 0.3 ^a % | 94.6 ± 8.1 ^ab % | 0.3 ± 0.2 ^b % | 89.8 ± 13.2% | 0.069 ×10⁻⁶ cm/s | 102 ± 9.5% | 0.134 ×10⁻⁶ cm/s | 95 ± 8.2% | 0.32 ×10⁻⁶ cm/s | 94.1 ± 8% | 0.1 ×10⁻⁶ cm/s | effect on cell viability [1]: did not affect cell viability up to the highest concentration tested; effect of 4 °C on transport compared to 37 °C (Caco-2 cell layer): significantly reduced; percentage of the amount added at the apical side at t = 0: apical side (Caco-2 cell layer; Gly-Sar 10 mmol/L): 93.7 ± 7.9 ^ab %
